Bounds are passed on as bounds.

In the assay the target is T1, LRRK2 WT (Homo sapiens, UniProt Q5S007).
T1 construct: purchased Life Technologies PR8604B
T1 sequence (Q5S007 whole entry): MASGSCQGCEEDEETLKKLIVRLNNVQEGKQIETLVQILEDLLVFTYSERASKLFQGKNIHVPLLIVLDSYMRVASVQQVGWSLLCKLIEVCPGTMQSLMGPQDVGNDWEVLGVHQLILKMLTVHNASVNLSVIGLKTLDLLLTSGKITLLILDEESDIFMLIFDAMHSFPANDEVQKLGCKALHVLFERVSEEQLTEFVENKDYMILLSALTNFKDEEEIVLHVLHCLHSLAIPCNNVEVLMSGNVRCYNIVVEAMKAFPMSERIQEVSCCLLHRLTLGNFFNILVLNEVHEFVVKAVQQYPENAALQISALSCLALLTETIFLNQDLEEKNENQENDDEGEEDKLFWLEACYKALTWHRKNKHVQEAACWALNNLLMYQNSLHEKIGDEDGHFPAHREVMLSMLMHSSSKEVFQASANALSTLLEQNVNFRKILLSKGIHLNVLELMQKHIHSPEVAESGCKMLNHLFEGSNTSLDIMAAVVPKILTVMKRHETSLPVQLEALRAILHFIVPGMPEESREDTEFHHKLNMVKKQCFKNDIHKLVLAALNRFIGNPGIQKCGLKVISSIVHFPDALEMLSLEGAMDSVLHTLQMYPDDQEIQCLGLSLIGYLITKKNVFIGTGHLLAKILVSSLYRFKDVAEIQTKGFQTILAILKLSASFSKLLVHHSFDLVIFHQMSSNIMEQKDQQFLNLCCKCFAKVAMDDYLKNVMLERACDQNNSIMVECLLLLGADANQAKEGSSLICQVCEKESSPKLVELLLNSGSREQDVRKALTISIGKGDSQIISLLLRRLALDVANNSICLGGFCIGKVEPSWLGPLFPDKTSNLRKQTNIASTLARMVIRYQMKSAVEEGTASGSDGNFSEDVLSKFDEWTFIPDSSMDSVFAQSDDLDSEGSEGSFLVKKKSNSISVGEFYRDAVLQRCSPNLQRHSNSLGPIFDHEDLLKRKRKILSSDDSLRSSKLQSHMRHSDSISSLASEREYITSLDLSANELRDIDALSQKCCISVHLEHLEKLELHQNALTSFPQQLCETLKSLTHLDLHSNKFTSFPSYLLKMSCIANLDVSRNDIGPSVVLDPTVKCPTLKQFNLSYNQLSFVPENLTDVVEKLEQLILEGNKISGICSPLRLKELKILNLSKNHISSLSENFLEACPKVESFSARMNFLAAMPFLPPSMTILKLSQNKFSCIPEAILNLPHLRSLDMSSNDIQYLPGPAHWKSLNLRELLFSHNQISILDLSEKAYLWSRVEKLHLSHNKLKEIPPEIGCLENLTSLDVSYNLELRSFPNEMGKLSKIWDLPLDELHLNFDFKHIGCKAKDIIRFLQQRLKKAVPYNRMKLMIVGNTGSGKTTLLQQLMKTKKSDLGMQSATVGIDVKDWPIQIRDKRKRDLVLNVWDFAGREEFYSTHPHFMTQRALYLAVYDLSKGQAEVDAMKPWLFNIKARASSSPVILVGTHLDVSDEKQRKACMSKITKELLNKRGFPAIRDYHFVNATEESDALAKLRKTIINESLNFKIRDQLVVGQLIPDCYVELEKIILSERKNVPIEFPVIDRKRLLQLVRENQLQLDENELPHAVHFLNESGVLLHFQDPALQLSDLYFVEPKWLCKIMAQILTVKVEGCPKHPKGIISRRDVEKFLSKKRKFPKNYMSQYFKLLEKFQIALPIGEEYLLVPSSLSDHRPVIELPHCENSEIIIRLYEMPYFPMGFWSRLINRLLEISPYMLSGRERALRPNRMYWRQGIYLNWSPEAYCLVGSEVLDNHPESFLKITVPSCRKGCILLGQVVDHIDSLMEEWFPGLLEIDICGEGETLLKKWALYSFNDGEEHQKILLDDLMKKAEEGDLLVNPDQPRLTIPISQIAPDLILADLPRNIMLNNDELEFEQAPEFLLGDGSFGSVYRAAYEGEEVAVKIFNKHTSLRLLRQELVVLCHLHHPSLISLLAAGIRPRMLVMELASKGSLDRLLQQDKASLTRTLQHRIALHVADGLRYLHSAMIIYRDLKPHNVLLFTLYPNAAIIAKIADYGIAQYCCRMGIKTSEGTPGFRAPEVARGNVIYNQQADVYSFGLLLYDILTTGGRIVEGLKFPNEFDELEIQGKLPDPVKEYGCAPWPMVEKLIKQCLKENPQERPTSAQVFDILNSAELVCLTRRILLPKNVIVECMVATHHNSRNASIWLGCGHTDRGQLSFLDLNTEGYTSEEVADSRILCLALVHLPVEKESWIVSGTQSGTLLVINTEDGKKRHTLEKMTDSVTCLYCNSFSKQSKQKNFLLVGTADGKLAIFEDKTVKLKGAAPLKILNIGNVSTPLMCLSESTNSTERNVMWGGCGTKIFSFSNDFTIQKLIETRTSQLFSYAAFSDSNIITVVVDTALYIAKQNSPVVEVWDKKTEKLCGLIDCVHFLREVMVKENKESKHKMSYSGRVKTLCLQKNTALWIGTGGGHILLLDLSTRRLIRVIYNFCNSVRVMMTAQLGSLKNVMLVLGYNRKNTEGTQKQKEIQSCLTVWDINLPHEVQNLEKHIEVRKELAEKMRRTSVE
Kind of assay: LRRK2 Kinase Activity Assay (LanthaScreen TR-FRET), wild type. Type of assay: biochemical. Particulars: recombinant wild type LRRK2, 25 μM ATP, 400 nM LRRKtide, 60 min; class symbols. The procedure:
LRRK2 kinase activity was measured using a LanthaScreen™ Kinase Activity Assay from ThermoFisher Scientific. Recombinant wild type or G2019S-LRRK2 protein (Life Technologies, PR8604B or PV4881, respectively), was incubated with a fluorescein-labeled peptide substrate called LRRKtide that is based upon ezrin/radixin/moesin (ERM) (Life Technologies, PV4901) in the presence of ATP and serially diluted compound. […] Compound-dependent inhibition of the TR-FRET signal was used to generate a concentration-response curve for IC50 determination.
After 60 min incubation at room temperature, the reaction was stopped by addition of 10 μL of 2×stop solution containing a final concentration of 2 nM anti-pERM antibody and 10 mM EDTA.
A word on the IC50: it is the concentration needed to halve the response being measured. Turning to `N#Cc1ccc2c(c1F)CC[C@@H]2Oc1ccc2[nH]nc(-c3cnn(C(F)F)c3)c2c1` (single isomer, unassigned) [Example 51, enantiomer 2, 1-((3-(1-(Difluoromethyl)-1H-pyrazol-4-yl)-1H-indazol-5-yl)oxy)-4-fluoro-2,3-dihydro-1H-indene-5-carbonitrile], the half-maximal inhibitory concentration (IC50) was less than 0.1 µM.
For the compound `Cc1c(C#N)ccc2c1CC[C@@H]2Nc1ccc2[nH]nc(-c3cnn(C(F)F)c3)c2c1` (single isomer, unassigned) [Example 52, enantiomer 2, 1-((3-(1-(Difluoromethyl)-1H-pyrazol-4-yl)-1H-indazol-5-yl)amino)-4-methyl-2,3-dihydro-1H-indene-5-carbonitrile], the concentration for half-maximal inhibition (IC50) was less than 0.1 µM.
The figure for `COc1c(C#N)ccc2c1CCC[C@@H]2Nc1ccc2[nH]nc(-c3cnco3)c2c1` (single isomer, unassigned) [Example 101, enantiomer 2, 1-Methoxy-5-{[3-(1,3-oxazol-5-yl)-1H-indazol-5-yl]amino}-5,6,7,8-tetrahydronaphthalene-2-carbonitrile] is less than 0.1 µM; for `N#Cc1cnc2c(c1)CC[C@@H]2Oc1ccc2[nH]nc(-c3cnco3)c2c1` (single isomer, unassigned) [Example 103, enantiomer 2, 7-((3-(Oxazol-5-yl)-1H-indazol-5-yl)oxy)-6,7-dihydro-5H-cyclopenta[b]pyridine-3-carbonitrile] it is less than 0.1 µM; for `Cc1nc2c(cc1C#N)CCC[C@@H]2Nc1ccc2[nH]nc(-c3cnco3)c2c1` (single isomer, unassigned) [Example 106, enantiomer 2, 2-Methyl-8-((3-(oxazol-5-yl)-1H-indazol-5-yl)amino)-5,6,7,8-tetrahydroquinoline-3-carbonitrile] it is less than 0.1 µM.
The value for `Cc1c(C#N)cnc2c1CC[C@@H]2Nc1ccc2[nH]nc(-c3cnco3)c2c1` (single isomer, unassigned) [Example 108, enantiomer 2, 4-Methyl-7-((3-(oxazol-5-yl)-1H-indazol-5-yl)amino)-6,7-dihydro-5H-cyclopenta[b]pyridine-3-carbonitrile] was less than 0.1 µM.
The figure for `N#Cc1cc2c(nc1Cl)[C@@H](Nc1ccc3[nH]nc(-c4cnco4)c3c1)CCC2` (single isomer, unassigned) [Example 112, enantiomer 2, 2-Chloro-8-((3-(oxazol-5-yl)-1H-indazol-5-yl)amino)-5,6,7,8-tetrahydroquinoline-3-carbonitrile] is less than 0.1 µM.
`COc1c(C#N)ccc2c1CC[C@@H]2Nc1ccc2[nH]nc(-c3cnco3)c2c1` (single isomer, unassigned) [Example 113, enantiomer 2, 4-Methoxy-1-((3-(oxazol-5-yl)-1H-indazol-5-yl)amino)-2,3-dihydro-1H-indene-5-carbonitrile]: the IC50 is less than 0.1 µM.
The figure for `CCc1cc(-c2n[nH]c3ccc(N[C@H]4CCCc5cc(C#N)ccc54)cc23)ccn1` (single isomer, unassigned) [Example 116, enantiomer 2, 5-((3-(2-Ethylpyridin-4-yl)-1H-indazol-5-yl)amino)-5,6,7,8-tetrahydronaphthalene-2-carbonitrile] is less than 0.1 µM; for `Cc1c(C#N)ccc2c1CC[C@H]2Nc1ccc2[nH]nc(-c3cnoc3)c2c1` (single isomer, unassigned) [Example 118, enantiomer 2, 1-((3-(Isoxazol-4-yl)-1H-indazol-5-yl)amino)-4-methyl-2,3-dihydro-1H-indene-5-carbonitrile] it is less than 0.1 µM.
The figure for `N#Cc1ccc2c(c1)CCC[C@H]2Nc1ccc2[nH]nc(-c3cnco3)c2c1` (single isomer, unassigned) [Example 119, enantiomer 2, 5-((3-(Oxazol-5-yl)-1H-indazol-5-yl)amino)-5,6,7,8-tetrahydronaphthalene-2-carbonitrile] is less than 0.1 µM; for `N#Cc1cnc2c(c1)CCC[C@H]2Nc1ccc2[nH]nc(-c3cnco3)c2c1` (single isomer, unassigned) [Example 120, enantiomer 2, 8-((3-(Oxazol-5-yl)-1H-indazol-5-yl)amino)-5,6,7,8-tetrahydroquinoline-3-carbonitrile] it is less than 0.1 µM.
The figure for `CCc1cc(-c2n[nH]c3ccc(O[C@@H]4CCCc5cc(C#N)cnc54)cc23)ccn1` (single isomer, unassigned) [Example 121, enantiomer 2, 8-((3-(2-Ethylpyridin-4-yl)-1H-indazol-5-yl)oxy)-5,6,7,8-tetrahydroquinoline-3-carbonitrile] is less than 0.1 µM.
As to `N#Cc1cc2c(cn1)[C@H](Oc1ccc3[nH]nc(-c4cnco4)c3c1)CCC2` (single isomer, unassigned) [Example 122, enantiomer 2, 8-((3-(Oxazol-5-yl)-1H-indazol-5-yl)oxy)-5,6,7,8-tetrahydroisoquinoline-3-carbonitrile], the 50% inhibitory concentration (IC50) was less than 0.1 µM.
The value for `COc1cc(-c2n[nH]c3ccc(O[C@H]4CCCc5cc(C#N)cnc54)cc23)ccn1` (single isomer, unassigned) [Example 123, enantiomer 2, 8-((3-(2-Methoxypyridin-4-yl)-1H-indazol-5-yl)oxy)-5,6,7,8-tetrahydroquinoline-3-carbonitrile] was less than 0.1 µM; that for `Cc1c(C#N)ccc2c1CC[C@@H]2Nc1ccc2[nH]nc(I)c2c1` (single isomer, unassigned) [Example 127, enantiomer 2, 1-((3-Iodo-1H-indazol-5-yl)amino)-4-methyl-2,3-dihydro-1H-indene-5-carbonitrile] was 0.1 to 1 µM.
The value for `Cc1n[nH]c2ccc(N[C@H]3CCc4c(C#N)cccc43)cc12` (single isomer, unassigned) [Example 129, enantiomer 2, 1-((3-Methyl-1H-indazol-5-yl)amino)-2,3-dihydro-1H-indene-4-carbonitrile] was 0.1 to 1 µM; that for `Cc1cc(C#N)cc2c1[C@@H](Nc1ccc3[nH]nc(-c4cnco4)c3c1)CC2` (single isomer, unassigned) [Example 131, enantiomer 2, 7-Methyl-1-((3-(oxazol-5-yl)-1H-indazol-5-yl)amino)-2,3-dihydro-1H-indene-5-carbonitrile] was less than 0.1 µM.
The value for `N#Cc1cc(F)c2c(c1)CC[C@H]2Nc1ccc2[nH]nc(-c3cnco3)c2c1` (single isomer, unassigned) [Example 132, enantiomer 2, 5-((5-Cyano-7-fluoro-2,3-dihydro-1H-inden-1-yl)amino)-3-(oxazol-5-yl)-1H-indazol-2-ium] was less than 0.1 µM.
Take `N#Cc1cnc2c(c1)CCC[C@@H]2Oc1ccc2[nH]nc(-c3cnn(C(F)F)c3)c2c1` (single isomer, unassigned) [Example 141, enantiomer 2, 8-((3-(1-(Difluoromethyl)-1H-pyrazol-4-yl)-1H-indazol-5-yl)oxy)-5,6,7,8-tetrahydroquinoline-3-carbonitrile]: the concentration for half-maximal inhibition (IC50) was less than 0.1 µM.
Consider `N#Cc1cnc2c(c1)CCC[C@@H]2Nc1ccc2[nH]nc(-c3cncs3)c2c1` (single isomer, unassigned) [Example 142, enantiomer 2, 8-((3-(Thiazol-5-yl)-1H-indazol-5-yl)amino)-5,6,7,8-tetrahydroquinoline-3-carbonitrile], for which the IC50 is less than 0.1 µM.
The value for `N#Cc1ccc2c(c1Cl)CCC[C@@H]2Nc1ccc2[nH]nc(-c3cnco3)c2c1` (single isomer, unassigned) [Example 143, enantiomer 2, 1-Chloro-5-((3-(oxazol-5-yl)-1H-indazol-5-yl)amino)-5,6,7,8-tetrahydronaphthalene-2-carbonitrile] was less than 0.1 µM.
The value for `N#Cc1cnc2c(c1C(F)(F)F)CCC[C@@H]2Nc1ccc2[nH]nc(-c3cnco3)c2c1` (single isomer, unassigned) [Example 145, enantiomer 2, 8-((3-(Oxazol-5-yl)-1H-indazol-5-yl)amino)-4-(trifluoromethyl)-5,6,7,8-tetrahydroquinoline-3-carbonitrile] was less than 0.1 µM.
On to `COc1c(C#N)cnc2c1CCC[C@@H]2Nc1ccc2[nH]nc(-c3cnco3)c2c1` (single isomer, unassigned) [Example 146, enantiomer 2, 4-Methoxy-8-((3-(oxazol-5-yl)-1H-indazol-5-yl)amino)-5,6,7,8-tetrahydroquinoline-3-carbonitrile], for which the IC50 was less than 0.1 µM.
Regarding `N#Cc1ccc2c(c1F)CC(F)(F)[C@@H]2Nc1ccc2[nH]nc(-c3cnco3)c2c1` (single isomer, unassigned) [Example 151, enantiomer 2, 2,2,4-Trifluoro-1-((3-(oxazol-5-yl)-1H-indazol-5-yl)amino)-2,3-dihydro-1H-indene-5-carbonitrile], the 50% inhibitory concentration (IC50) was less than 0.1 µM.
The figure for `COc1c(C#N)cnc2c1CC[C@@H]2Nc1ccc2[nH]nc(-c3cnco3)c2c1` (single isomer, unassigned) [Example 154, enantiomer 1, 4-Methoxy-7-((3-(oxazol-5-yl)-1H-indazol-5-yl)amino)-6,7-dihydro-5H-cyclopenta[b]pyridine-3-carbonitrile] is 0.1 to 1 µM.
The value for `Cc1ncc(-c2n[nH]c3ccc(N[C@@H]4c5ccc(C#N)cc5CC4(F)F)cc23)o1` (single isomer, unassigned) [Example 155, enantiomer 2, 2,2-Difluoro-1-((3-(2-methyloxazol-5-yl)-1H-indazol-5-yl)amino)-2,3-dihydro-1H-indene-5-carbonitrile] was less than 0.1 µM; that for `Cc1ncc(-c2n[nH]c3ccc(O[C@H]4CCc5c4ccc(C#N)c5F)cc23)o1` (single isomer, unassigned) [Example 156, enantiomer 2, 4-Fluoro-1-((3-(2-methyloxazol-5-yl)-1H-indazol-5-yl)oxy)-2,3-dihydro-1H-indene-5-carbonitrile] was less than 0.1 µM.

Source of the values: US20230148214A1, “INDAZOLES AND AZAINDAZOLES AS LRRK2 INHIBITORS” (ESCAPE Bio, Inc., priority 2020, published 2023).
